Patent publication US5486597A, “Tetrapeptide derivatives and analogues” (James Black Foundation Limited, priority 1990, dated 1996)

Experiments:
Format in all cases: cell-based
gastrin receptor [1] = target: T1, gastrin receptor (Mus musculus, UniProt P56481); experiment: mouse stomach assay for gastrin activity (isolated stomach, acid secretion); conditions: for Acid seretion at 10^-5 M test compound, relative to pentagastrin (%): mouse stomach, NS = not significant
T1 construct: assayed for gastrin activity using the mouse stomach assay; from tissue; host or cells: isolated mouse stomach
T1 sequence (P56481 1-453): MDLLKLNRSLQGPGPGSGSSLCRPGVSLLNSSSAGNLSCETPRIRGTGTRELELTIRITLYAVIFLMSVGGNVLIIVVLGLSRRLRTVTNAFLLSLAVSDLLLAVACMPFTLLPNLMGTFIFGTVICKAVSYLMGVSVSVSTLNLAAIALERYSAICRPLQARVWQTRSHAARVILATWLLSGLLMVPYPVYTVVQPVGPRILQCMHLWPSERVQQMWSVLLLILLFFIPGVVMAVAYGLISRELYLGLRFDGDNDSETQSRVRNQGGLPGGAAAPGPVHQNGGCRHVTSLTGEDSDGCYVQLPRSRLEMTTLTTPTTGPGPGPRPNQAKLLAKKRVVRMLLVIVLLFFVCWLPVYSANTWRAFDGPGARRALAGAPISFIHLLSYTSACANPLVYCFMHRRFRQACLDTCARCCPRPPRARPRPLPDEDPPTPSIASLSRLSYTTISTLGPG
Procedure: The compounds were assayed for gastrin activity using the mouse stomach assay as described by Black, J. W. and Shankley, N. P., Br. J. Pharmacol., 86, 571-579, (1985), and also in the guinea-pig fundus assay, as follows: […]

gastrin receptor [2] = target: T2, gastrin receptor (Cavia porcellus, UniProt H0VZC5); experiment: guinea-pig fundus assay for gastrin activity (stomach muscle strips); conditions: 10^-8 M devazepide present, 60 minute equilibration, agonist e.g. pentagastrin, standard errors less than 5%
T2 construct: Strips of muscle (approximately 2.5 cm by 1 cm) are removed from the proximal area of the stomach; from tissue; host or cells: guinea-pig proximal stomach (fundus) muscle strips
T2 sequence (H0VZC5 1-426): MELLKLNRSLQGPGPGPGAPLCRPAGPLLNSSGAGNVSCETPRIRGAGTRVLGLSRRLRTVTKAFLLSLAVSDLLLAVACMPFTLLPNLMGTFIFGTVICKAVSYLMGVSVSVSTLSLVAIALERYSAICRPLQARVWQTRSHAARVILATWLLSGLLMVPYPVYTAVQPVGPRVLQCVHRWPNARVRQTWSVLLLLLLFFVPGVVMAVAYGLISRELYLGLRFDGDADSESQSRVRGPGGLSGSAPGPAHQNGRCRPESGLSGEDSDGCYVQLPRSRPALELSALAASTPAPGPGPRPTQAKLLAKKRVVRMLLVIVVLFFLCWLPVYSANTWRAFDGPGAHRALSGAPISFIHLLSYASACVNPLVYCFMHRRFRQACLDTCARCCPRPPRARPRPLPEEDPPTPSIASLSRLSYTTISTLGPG
How it was run: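 Proximal stomach muscle strips from male Dunkin-Hartley guinea-pigs were mounted on isotonic transducers at 0.35 g in gassed Krebs containing 10^-8 M devazepide to block CCK receptors, with 10 mM KCl added. Test compounds were equilibrated 60 min before cumulative pentagastrin dose-response curves were run.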

[3] = target: T3, cholecystokinin receptors (Cavia porcellus, UniProt Q63931); experiment: CCK-antagonist activity in isolated guinea-pig gall-bladder strip preparations; conditions: guinea-pig gall-bladder strips; CCK-8 as agonist; test compound incubated for 60 minutes; standard errors less than 5%
T3 construct: Isolated, strip preparations were prepared from gall-bladders removed from male Dunkin-Hartley guinea-pigs; from tissue; host or cells: guinea-pig gall-bladder strips
T3 sequence (Q63931 1-430): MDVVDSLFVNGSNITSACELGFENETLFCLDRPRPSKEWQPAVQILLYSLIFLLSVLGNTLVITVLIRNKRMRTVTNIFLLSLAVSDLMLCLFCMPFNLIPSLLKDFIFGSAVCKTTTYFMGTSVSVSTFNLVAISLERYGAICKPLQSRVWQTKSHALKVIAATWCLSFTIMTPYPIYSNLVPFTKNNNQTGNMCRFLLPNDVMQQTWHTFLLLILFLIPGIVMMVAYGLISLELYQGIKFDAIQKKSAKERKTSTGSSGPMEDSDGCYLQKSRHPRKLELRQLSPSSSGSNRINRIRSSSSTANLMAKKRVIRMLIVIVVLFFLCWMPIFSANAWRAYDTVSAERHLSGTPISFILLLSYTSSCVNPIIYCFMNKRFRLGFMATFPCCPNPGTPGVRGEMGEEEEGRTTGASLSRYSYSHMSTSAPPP
How it was run: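 Male Dunkin-Hartley guinea-pig gall-bladder strips under 1 g isometric tension in Krebs (0.5 mM Ca²⁺), 37° C, 95% O2/5% CO2, stabilised 90 min. Cumulative CCK-8 concentration-effect curves without and with test compound (60 min preincubation); antagonism expressed as […] by modified competitive analysis.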

[4] = isolated mouse stomach assay, gastrin antagonism, standard errors less than 5%

| SMILES | pKB mouse stomach (gastrin receptor [1]; [4]) | Acid seretion at 10^-5 M test compound, relative to pentagastrin (%) (gastrin receptor [1]) | pKB (gastrin receptor [2]) | pKB [3] | Kb (gastrin receptor [1]; isolated mouse stomach assay, gastrin antagonism, standard errors less than 5%, read-out: pKB mouse stomach (converted)) | Kb (gastrin receptor [2]) | Kb [3] |
| --- | --- | --- | --- | --- | --- | --- | --- |
| CC(C)(C)OC(=O)N[C@@H](Cc1c[nH]c2ccccc12)C(=O)N[C@@H](Cc1ccc2ccccc2c1)C(=O)N[C@@H](CC(=O)O)C(=O)N[C@@H]1CCC[C@H]1c1ccccc1 (single isomer, unassigned; diastereomer 1) [Example 31, N-t-Butyloxycarbonyl-L-tryptophyl-L-3-(2-naphthyl)alanyl-L-aspartyl-trans-2-phenylcyclopentylamide (diastereomer 1)] | 5.0 | 40% | 6.1 | 6.5 |  |  |  |
| CC(C)(C)OC(=O)N[C@@H](Cc1c[nH]c2ccccc12)C(=O)N[C@@H](Cc1ccc2ccccc2c1)C(=O)N[C@@H](CC(=O)O)C(=O)NCCc1ccc(N)cc1 [Example 46, N-t-Butyloxycarbonyl-L-tryptophyl-L-3-(2-naphthyl)alanyl-L-aspartyl-4-aminophenethylamide] | 5.6 |  | 6.0 | 6.5 |  |  |  |
| COc1ccccc1CCNC(=O)[C@H](CC(=O)O)NC(=O)[C@H](Cc1ccc2ccccc2c1)NC(=O)[C@H](Cc1c[nH]c2ccccc12)NC(=O)OC(C)(C)C [Example 40, N-t-Butyloxycarbonyl-L-tryptophyl-L-3-(2-naphthyl)alanyl-L-aspartyl-2-methoxyphenethylamide] | 5.2 | 22% | 5.8 | 7.1 |  |  |  |
| COc1ccc2[nH]cc(CC(NC(=O)OC(C)(C)C)C(=O)N[C@@H](Cc3ccc4ccccc4c3)C(=O)N[C@@H](CC(=O)O)C(=O)N[C@@H](Cc3ccccc3)C(N)=O)c2c1 (mixture of isomers) [Example 19, N-t-Butyloxycarbonyl-5-methoxy-D,L-tryptophyl-L-3-(2-naphthyl)alanyl-L-aspartyl-L-phenylalaninamide] |  | 80% |  |  | 5010 nM | 1580 nM | 501 nM |
